Results taken from US7956069B2, “Compounds” (AstraZeneca AB, priority 2006, dated 2011).

Target: T1, hM1 (human Muscarinic receptor subtype 1) (Homo sapiens, UniProt P11229)
T1 construct: expressed in transfected cells; host or cells: CHO cells (Chinese hamster ovary cells, ATCC)
T1 sequence (P11229 1-460): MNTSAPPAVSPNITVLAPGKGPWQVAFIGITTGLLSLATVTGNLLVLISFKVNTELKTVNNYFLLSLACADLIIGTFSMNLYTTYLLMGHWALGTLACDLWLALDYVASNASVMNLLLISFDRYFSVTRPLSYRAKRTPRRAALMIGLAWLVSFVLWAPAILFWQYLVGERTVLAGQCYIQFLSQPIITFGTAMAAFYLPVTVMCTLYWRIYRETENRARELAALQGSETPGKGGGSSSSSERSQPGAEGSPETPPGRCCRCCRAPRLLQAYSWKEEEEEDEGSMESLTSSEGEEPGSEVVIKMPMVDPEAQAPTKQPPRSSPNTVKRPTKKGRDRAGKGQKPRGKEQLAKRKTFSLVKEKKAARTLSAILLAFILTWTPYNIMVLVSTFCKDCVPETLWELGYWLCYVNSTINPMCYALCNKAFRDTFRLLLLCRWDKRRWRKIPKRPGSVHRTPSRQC
Assay: Human M1 calcium mobilization FLIPR assay
Assay type: cell-based
Conditions: CHO cells expressing hM1, Ca2+ release
Procedure: Biological Evaluation Human M1, Rat M1, Human M3 and Human M5 Calcium Mobilization FLIPR™ Assay
The compound activity in the present invention (EC50 or IC50) was measured using a 384 plate-based imaging assay that monitors drug induced intracellular Ca^2+ release in whole cells. Activation of hM1 (human Muscarinic receptor subtype 1, gene bank access NM_000738), rM1 (rat Muscarinic receptor subtype 1, gene bank access NM_080773), hM3 (human Muscarinic receptor subtype 3, gene bank access NM_000740NM_000740) and hM5 (human Muscarinic receptor subtype 5, gene bank access NM_0121258), receptors expressed in CHO cells (Chinese hamster ovary cells, ATCC) was quantified in a Molecular Devices FLIPR II™ instrument as an increase in fluorescent signal. Inhibition of hM3 and hM5 by compounds was determined by the decrease in fluorescent signal in response to 20 nM carbachol activation.
CHO cells were plated in 384-black polylysine coated plate (Costar) at 8000 cells/well/50 μl for 24 hours or 4000 cells/well for 48 hours in a humidified incubator (5% CO2 and 37° C.) in DMEM/F12 medium without selection agent. Prior to the experiment the cell culture medium was removed from the plates by inversion. A loading solution of 30 μl of Hank's balanced salt solution, 10 mM Hepes and 2.5 mM Probenicid at Ph 7.4 (Cat no. 311-520-VL, Wisent) with 2 μM calcium indicator dye (FLUO-3AM, Molecular Probes F14202) was added to each well. Plates were incubated at 37° C. for 60 minutes prior to start the experiment. The incubation was terminated by washing the cells four times in assay buffer, leaving a residual 25 μl buffer per well. Cell plates were then transferred to the FLIPR, ready for compound additions.
The day of experiment, carbachol and compounds were diluted in three-fold concentration range (10 points serial dilution) for addition by FLIPR instrument. For all calcium assays, a baseline reading was taken for 30 seconds followed by the addition of 12.5 μl (25 μl for hM1 and rM1) of compounds, resulting in a total well volume of 37.5 μl (50 μl for hM1 and rM1). Data were collected every 1.6 seconds for 300 seconds. For hM3 and hM5 an additional 12.5 μl of carbachol (20 nM final) was added at 300 seconds. After this addition of carbachol (producing a final volume of 50 μl), the FLIPR continued to collect data every 2 seconds for 240 seconds. The fluorescence emission was read using filter 1 (emission 520-545 nm) by the FLIPR on board CCD camera.
Calcium mobilization output data were calculated as the maximal relative fluorescence unit (RFU) minus the minal value for both compound and agonist reading frame (except for hM1 and rM1 using only the maximal RFU). Data were analyzed using sigmoidal fits of a non-linear curve-fitting program (XLfit version 5.0.6 from ID Business Solutions Limited, Guildford, UK). All EC50 and IC50 values are reported as arithmetic means±standard error of mean of ‘n’ independent experiments.

| SMILES | EC50 [nM] |
| --- | --- |
| CCOC(=O)N1CC[C@H](N2CCC(N3C(=O)N[C@H]4CCCC[C@@H]43)CC2)C1 | 5 |
| COc1ccccc1C(=O)N1CCC(N2CCC(N3C(=O)N[C@@H]4CCCC[C@H]43)CC2)CC1 | 200 |
| CC(C)OC(=O)N1CCC(N2CCC(N3C(=O)N[C@H]4CCCC[C@@H]43)CC2)CC1 | 4.6 |
| CC(C)OC(=O)N1CCC(N2CCC(N3C(=O)N[C@@H]4CCCC[C@@H]43)CC2)CC1 | 15 |
| O=C1CCCN1CCC(=O)N1CCC(N2CCC(N3C(=O)N[C@H]4CCCC[C@@H]43)CC2)CC1 | 6.8 |
| O=C1CCCN1CCC(=O)N1CCC(N2CCC(N3C(=O)N[C@@H]4CCCC[C@H]43)CC2)CC1 | 9.2 |
| CC(C)OC(=O)N1CCC(N2CCC(N3C(=O)C[C@H]4CCCC[C@@H]43)CC2)CC1 | 14 |
| O=C(OCCF)N1CCC(N2CCC(N3C(=O)N[C@H]4CCCC[C@@H]43)CC2)CC1 | 2.5 |

Other lines, results leading:

| EC50 [nM] | SMILES |
| --- | --- |
| 1.1 | CCOC(=O)N1CCC(N2CCC(N3C(=O)N[C@H]4CCCC[C@@H]43)CC2)CC1 |
| 46 | O=C(C1CC1)N1CCC(N2CCC(N3C(=O)N[C@@H]4CCCC[C@H]43)CC2)CC1 |
| 95 | O=C(C1CCCC1)N1CCC(N2CCC(N3C(=O)N[C@H]4CCCC[C@@H]43)CC2)CC1 |
| 94 | CN1C(=O)N(C2CCN(C3CCN(C(=O)C4CC4)CC3)CC2)[C@H]2CCCC[C@@H]21 |
